Experimental data published in patent US20210052600A1, “THERAPEUTIC AGENTS FOR STRESS URINARY INCONTINENCE AND INCOTINENCE OF FECES” (Takeda Pharmaceutical Company Limited, priority 2017, published 2021).

Tests used:
[1] = tested on: urethral resistance increasing effect of Compound A′; experiment: Influence of antagonists (SB 242084, methiothepin) on urethral resistance increasing effect of Compound A′ in rats; assay type: in vivo, rat; conditions: mean ± SEM; for LPP Post: 30 minutes after Compound A′; for LPP Increase: Post minus Pre; for LPP Pre: before administration
Procedure: Ninety female rats of SD strain were used. […] Isoflurane inhalation was added during the surgery, if necessary. In the experiment with intrathecal administration, the dura mater was exposed by laminectomy and then partially opened by incision, through which a catheter (PE-10) filled with saline was then implanted at the level of the L6-S1 site, followed by the closing of the incision. After opening of the abdomen, a catheter (PE-90) was inserted into the bladder. In order to secure reduced urethral resistance, unilateral nerve to iliococcygeus and pubococcygeus muscles was transected. For intraduodenal administration, another catheter (PE-50) was inserted into the duodenum in advance. The abdominal muscle and skin were each closed with sutures. Two (right and left) sites of abdominal skin near the diaphragm were cut to expose abdominal muscle. The bladder was emptied through the catheter, followed by the injection of 0.2 to 0.3 mL of Evans blue solution. Change in intravesical pressure was recorded using the bladder catheter via a pressure transducer, an electric signal amplifier, and an analog-to-digital converter. While change in intravesical pressure was recorded, the presence or absence of fluid leakage from the urethral orifice was observed under the electrical stimulation of the exposed abdominal muscle using an electrical stimulator and an isolator. […] The peak of the intravesical pressure during the stimulation of the abdominal muscle was measured, and the lowest pressure at which the fluid leakage was observed among the trials was defined as LPP for the electrical abdominal muscle stimulation method. In order to examine whether the urethral resistance increasing effect of Compound A′ is based on its agonistic potency on 5-HT2C receptors, SB 242084, methiothepin, or a vehicle was intravenously administered, and Compound A′ or a vehicle was intraduodenally administered 5 minutes later. SB 242084 was dissolved in a mixed solution of N,N-dimethylacetamide and polyethylene glycol 400 (1:1) and administered at 0.03 mg/0.5 mL/kg, 0.1 mg/0.5 mL/kg and 0.3 mg/0.5 mL/kg. Methiothepin was dissolved in saline and administered at 0.03 mg/0.5 mL/kg. 0.1 mg/0.5 mL/kg and 0.3 mg/0.5 mL/kg. Compound A′ was suspended in 0.5% MC and administered at 3 mg/mL/kg. LPP was measured again 30 minutes after Compound A′ administration. In order to examine where Compound A′ works in the body to increase urethral resistance, the blocking of the effect of Compound A′ was confirmed by blocking the functions of Compound A′ by giving methiothepin at a particular site in the body. Particularly, in the experiment with intrathecal administration, methiothepin or a vehicle was intrathecally administered, and Compound A′ or a vehicle was intraduodenally administered 5 minutes later. Methiothepin was dissolved in saline and 20 μL of the obtained solution was administered. Compound A′ was suspended in 0.5% MC and administered at 3 mg/mL/kg. LPP was measured again 30 minutes after Compound A′ administration.
Regarding change in LPP before and after drug administration, the differences between the mean values of the Compound A′-treated and vehicle-treated groups were analyzed by the Student's t test or the Welch's test. In order to analyze the influence of the antagonists on the effect of Compound A′, the differences between the mean values of the SB 242084- or methiothepin- and Compound A′-administered group and the vehicle- and Compound A′-administered group were analyzed by the one-tailed Williams' test.

[2] = tested on: urethra-closing reflex response; experiment: Urethra-closing reflex response induced by intravesical pressure rise in rats; assay type: in vivo, rat; conditions: 3 mg/kg i.d., mean ± SEM
Procedure: Thirty-two female rats of SD strain were used. The rats were anesthetized with urethane. Isoflurane inhalation was added during the surgery, if necessary. Their spinal cord was transected at the T8-T9 (the eighth thoracic cord—the ninth thoracic cord) level to eliminate the reflex voiding and to inhibit the transition from the urine storage phase to the voiding phase in the voiding cycle. After opening of the abdomen, the bladder neck was ligated with suture, and a catheter (PE-100) was inserted into the bladder. The bladder catheter was connected to a pressure transducer and a saline-containing reservoir via three-way stopcocks. A microtip transducer catheter was inserted from the urethral orifice toward the bladder so that its transducer was inserted into the urethra. Local change in pressure within the urethra (intraurethral pressure) was recorded via an electric signal amplifier and an analog-to-digital converter. […] Then, the reservoir was brought back to the original position to adjust the intravesical pressure to its baseline. Such change in intraurethral pressure induced by intravesical pressure rise was repeatedly measured, and the mean value from the last 2 trials was used as a Pre value. The vehicle used was 0.5% MC. […] Thirty minutes after administration, the change in intraurethral pressure induced by intravesical pressure rise was measured again and used as a Post value. The average value before intravesical pressure rise was subtracted from the average value during intravesical pressure rise, and the subtracted value was used as urethra-closing reflex response. The ratio of the Post value to the Pre value was calculated.

urethral resistance = experiment: Rat urethral resistance (LPP) measured by high speed infusion of saline into the bladder; assay type: in vivo; conditions: for LPP Post: 30 minutes after administration; for LPP Post / LPP Increase / LPP Pre: mean ± SEM; for LPP Increase: Post minus Pre; for LPP Pre: before administration
Excerpt: The rats were anesthetized with isoflurane. Their spinal cord was transected at the T8-T9 (the eighth thoracic cord—the ninth thoracic cord) level. After opening of the bladder dome, two polyethylene tubes (PE-100) were inserted into the bladder. The incised portion of the bladder was closed with sutures, and the other incisions were also closed. The rats were placed in Bollman cages. The catheter for intravesical pressure measurement was connected to a pressure transducer, while the catheter for saline filling was connected to a syringe filled with Evans Blue-dyed saline. Change in intravesical pressure was recorded using the pressure transducer via an electric signal amplifier and an analog-to-digital converter. After recovery of the animals from anesthesia, the intravesical pressure measurement was started, and saline was infused at a speed of 0.1 mL/sec into the bladder using an infusion pump. The infusion was stopped when the leakage of the saline from the urethral orifice was observed. Immediately thereafter, the bladder was emptied by releasing the pressure. In this operation, the peak of recorded intravesical pressure during the saline infusion was used as LPP in this Example. This measurement was repeated, and the average LPP from the last three measurements was used as the LPP value of the trial. The mean from 2 such trials was used as a Pre value. 0.5% MC was used as the vehicle. […] The difference in LPP from the Pre value (increased amount of LPP) was calculated. Regarding change in LPP before and after drug administration, the differences between the mean values of the drug-treated and vehicle-treated groups were analyzed by the one-tailed Williams' test.

urethra-closing response = experiment: MT (threshold inducing urethra-closing response) under transcranial magnetic stimulation in healthy female volunteers; assay type: in vivo, human
Procedure: The test subjects were healthy female volunteers having a body weight of at least 45 kg (average: 50.91 kg, standard deviation: 3.346) and a BMI value of 18.5 kg/m^2 to 25.0 kg/m^2 (average: 19.57 kg/m^2, standard deviation: 0.929).
A washout period of at least 7 days was provided between the treatments.
A capsule containing 40 mg of duloxetine was orally administered as duloxetine together with water. A placebo capsule containing saccharose and spherical starch granules was orally administered as a placebo for duloxetine together with water.
Specifically, during the TMS, the output of a magnetic stimulator (Magstim Rapid Square, manufactured by Magstim Co., Ltd.) was increased by 5% each time using 110 mm double cone coil, and the minimum output at which urethra-closing response occurred abruptly was determined and used as MT (%). The urethra-closing response was detected by measuring contractile responses within the urethra. The contractile response within the urethra was measured using Duet Logic G2 (manufactured by Mediwatch Ltd.) and UniTip (manufactured by Unisensor AG). MT was measured again after administration of each drug, and the rate of change (%) from the baseline was calculated. The rate of change was determined by dividing MT after administration of each drug by MT before administration.

[3] = Plasma concentration of Compound A in healthy female volunteers after a single oral dose of Compound A′; conditions: no unit in table (ng/mL)
Procedure: In each period, the test subjects received any of Treatments A to D once according to Table 10, and change in the plasma concentration of the administered compound was measured over 24 hours after each Treatment.
Specifically, 100 mL of the injectable water containing 20 mg or 90 mg of Compound A′ based on its free form was supplemented with a sweetener, and this solution was orally administered as Compound A′. As a placebo for Compound A′, 100 mL of the injectable water was supplemented with a sweetener, and this solution was orally administered.

[4] = SB 242084 0 mg/kg i.v. (vehicle) + Compound A′ 3 mg/kg i.d.
[5] = methiothepin 0 μg intrathecal (vehicle) + Compound A′ 3 mg/kg i.d.
[6] = methiothepin 0 mg/kg i.v. (vehicle) + Compound A′ 3 mg/kg i.d.
[7] = 20 mg single oral dose, Predose
[8] = 90 mg single oral dose, Predose

## CC(C)N(C)c1cnc2c(n1)OCCNC2.Cl [Compound A′, N-methyl-N-(1-methylethyl)-6,7,8,9-tetrahydropyrazino[2,3-f][1,4]oxazeine-3-amine]
[1]; [4]
  LPP Post: 72.4 ± 9.5 cmH2O
  LPP Increase: 26.4 ± 5.9 cmH2O
  LPP Pre: 46.0 ± 5.1 cmH2O
[1]; [5]
  LPP Post: 72.1 ± 5.7 cmH2O
  LPP Increase: 31.8 ± 6.2 cmH2O
  LPP Pre: 40.3 ± 5.6 cmH2O
[1]; [6]
  LPP Post: 61.0 ± 8.3 cmH2O
  LPP Increase: 15.1 ± 4.0 cmH2O
  LPP Pre: 45.9 ± 4.4 cmH2O
[2]; 30 minutes after administration, intravesical pressure rise by 50 cm H2O
  Urethra-closing reflex response Post: 10.40 ± 1.78 cmH2O
[2]; before administration, intravesical pressure rise by 50 cm H2O
  Urethra-closing reflex response Pre: 3.58 ± 0.42 cmH2O
[2]; ratio of Post value to Pre value
  Urethra-closing reflex response Ratio (Post/Pr): 2.82 ± 0.29
Urethral resistance; 1.25 mg/kg p.o.
  LPP Post: 63.2 ± 4.7 cmH2O
  LPP Increase: 5.5 ± 3.0 cmH2O
  LPP Pre: 57.7 ± 3.6 cmH2O
Urethral resistance; 2.5 mg/kg p.o.
  LPP Post: 70.2 ± 3.8 cmH2O
  LPP Increase: 10.9 ± 2.2 cmH2O
  LPP Pre: 59.2 ± 2.6 cmH2O
Urethral resistance; 5 mg/kg p.o.
  LPP Post: 75.9 ± 3.3 cmH2O
  LPP Increase: 15.3 ± 3.7 cmH2O
  LPP Pre: 60.6 ± 3.6 cmH2O
Urethral resistance; 10 mg/kg p.o.
  LPP Post: 78.4 ± 5.6 cmH2O
  LPP Increase: 21.7 ± 4.4 cmH2O
  LPP Pre: 56.7 ± 2.4 cmH2O
Urethral resistance; 20 mg/kg p.o.
  LPP Post: 77.7 ± 3.5 cmH2O
  LPP Increase: 21.5 ± 3.4 cmH2O
  LPP Pre: 56.3 ± 5.1 cmH2O
Urethral resistance; oral administration, high speed saline infusion method
  LPP10, the dose that increases LPP by 10 cm H2O: 1.6 mg/kg
urethra-closing response; 20 mg group, at 0.5 hours post dose
  maximum change from baseline in MT in response to TMS: −8.1%
urethra-closing response; 20 mg single oral dose, 0.5 hr
  MT of the urethra-closing response in response to TMS, Mean: 58.1%
  Rate of change from baseline of MT of the urethra-closing response in response to TMS, Mean: −8.1%
urethra-closing response; 20 mg single oral dose, 2 hr
  MT of the urethra-closing response in response to TMS, Mean: 59.0%
  Rate of change from baseline of MT of the urethra-closing response in response to TMS, Mean: −7.3%
urethra-closing response; 20 mg single oral dose, 6 hr
  MT of the urethra-closing response in response to TMS, Mean: 64.2%
  Rate of change from baseline of MT of the urethra-closing response in response to TMS, Mean: −2.1%
urethra-closing response; [7]
  MT of the urethra-closing response in response to TMS, Mean: 66.3%
urethra-closing response; 90 mg group, at 3 hours post dose
  maximum change from baseline in MT in response to TMS: −17.2%
urethra-closing response; 90 mg single oral dose, 0.5 hr
  MT of the urethra-closing response in response to TMS, Mean: 55.9%
  Rate of change from baseline of MT of the urethra-closing response in response to TMS, Mean: −14.1%
urethra-closing response; 90 mg single oral dose, 2 hr
  MT of the urethra-closing response in response to TMS, Mean: 52.8%
  Rate of change from baseline of MT of the urethra-closing response in response to TMS, Mean: −17.2%
urethra-closing response; 90 mg single oral dose, 6 hr
  MT of the urethra-closing response in response to TMS, Mean: 56.3%
  Rate of change from baseline of MT of the urethra-closing response in response to TMS, Mean: −13.7%
urethra-closing response; [8]
  MT of the urethra-closing response in response to TMS, Mean: 70.0%
[3]; 20 mg single oral dose, 0.5 hr
  plasma concentration of compound A, Mean: 29.21
  plasma concentration of compound A, Median: 28.40
[3]; 20 mg single oral dose, 1 hr
  plasma concentration of compound A, Mean: 25.19
  plasma concentration of compound A, Median: 24.10
[3]; 20 mg single oral dose, 2 hr
  plasma concentration of compound A, Mean: 20.46
  plasma concentration of compound A, Median: 19.20
[3]; 20 mg single oral dose, 3 hr
  plasma concentration of compound A, Mean: 14.38
  plasma concentration of compound A, Median: 13.10
[3]; 20 mg single oral dose, 6 hr
  plasma concentration of compound A, Mean: 3.476
  plasma concentration of compound A, Median: 3.760
[3]; 20 mg single oral dose, 8 hr
  plasma concentration of compound A, Mean: 1.416
  plasma concentration of compound A, Median: 1.590
[3]; 20 mg single oral dose, 12 hr
  plasma concentration of compound A, Mean: 0.1327
  plasma concentration of compound A, Median: 0.000
[3]; [7]
  plasma concentration of compound A, Mean: 0.000
  plasma concentration of compound A, Median: 0.000
[3]; 90 mg single oral dose, 0.5 hr
  plasma concentration of compound A, Mean: 127.3
  plasma concentration of compound A, Median: 114.0
[3]; 90 mg single oral dose, 1 hr
  plasma concentration of compound A, Mean: 126.0
  plasma concentration of compound A, Median: 113.0
[3]; 90 mg single oral dose, 2 hr
  plasma concentration of compound A, Mean: 152.8
  plasma concentration of compound A, Median: 145.0
[3]; 90 mg single oral dose, 3 hr
  plasma concentration of compound A, Mean: 122.4
  plasma concentration of compound A, Median: 127.0
[3]; 90 mg single oral dose, 6 hr
  plasma concentration of compound A, Mean: 52.81
  plasma concentration of compound A, Median: 47.30
[3]; 90 mg single oral dose, 8 hr
  plasma concentration of compound A, Mean: 24.69
  plasma concentration of compound A, Median: 20.30
[3]; 90 mg single oral dose, 12 hr
  plasma concentration of compound A, Mean: 5.612
  plasma concentration of compound A, Median: 4.450
[3]; [8]
  plasma concentration of compound A, Mean: 0.000
  plasma concentration of compound A, Median: 0.000
